Laboratory results from PubChem BioAssay AID1963977 (Molecular Pharmacology Branch, DTP, NCI, 2024).
Values belong to the compound of their own block, whether it stands above or below them.

Test system: 624824-186-R-J3-PDC multicell spheroids, viability
Assay: Anticancer human tumor 624824-186-R-J3-PDC patient-derived colon adenocarcinoma cell line growth inhibition [PI3K]
Settings: for IC50: curve of first compound; for viability, T/C: stronger effect = lower value
Summary of the method: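 Combination activity was assessed by viability in multicellular tumor spheroids carrying HUVEC and MSC components. Agents were tested with PI3K inhibitors from a Cmax-based top dose (or 10 microM) downward in half-log increments.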

[1] = second compound 0.00316 µM, first compound 0.0316 µM
[2] = second compound 0.00316 µM, first compound 0.1 µM
[3] = second compound 0.00316 µM, first compound 0.316 µM
[4] = second compound 0.00316 µM, first compound 1 µM
[5] = second compound 0.00316 µM, first compound 3.16 µM
[6] = second compound 0.00316 µM, first compound 10 µM
[7] = second compound 0.01 µM, first compound 0.0316 µM
[8] = second compound 0.01 µM, first compound 0.1 µM
[9] = second compound 0.01 µM, first compound 0.316 µM
[10] = second compound 0.01 µM, first compound 1 µM
[11] = second compound 0.01 µM, first compound 3.16 µM
[12] = second compound 0.01 µM, first compound 10 µM
[13] = second compound 0.0316 µM, first compound 0.0316 µM
[14] = second compound 0.0316 µM, first compound 0.1 µM
[15] = second compound 0.0316 µM, first compound 0.316 µM
[16] = second compound 0.0316 µM, first compound 1 µM
[17] = second compound 0.0316 µM, first compound 3.16 µM
[18] = second compound 0.0316 µM, first compound 10 µM
[19] = second compound 0.1 µM, first compound 0.0316 µM
[20] = second compound 0.1 µM, first compound 0.1 µM
[21] = second compound 0.1 µM, first compound 0.316 µM
[22] = second compound 0.1 µM, first compound 1 µM
[23] = second compound 0.1 µM, first compound 3.16 µM
[24] = second compound 0.1 µM, first compound 10 µM
[25] = second compound 0.316 µM, first compound 0.0316 µM
[26] = second compound 0.316 µM, first compound 0.1 µM
[27] = second compound 0.316 µM, first compound 0.316 µM
[28] = second compound 0.316 µM, first compound 1 µM
[29] = second compound 0.316 µM, first compound 3.16 µM
[30] = second compound 0.316 µM, first compound 10 µM
[31] = second compound 1 µM, first compound 0.0316 µM
[32] = second compound 1 µM, first compound 0.1 µM
[33] = second compound 1 µM, first compound 0.316 µM
[34] = second compound 1 µM, first compound 1 µM
[35] = second compound 1 µM, first compound 3.16 µM
[36] = second compound 1 µM, first compound 10 µM
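Further: spheroids exposed to agents for seven days before luminescence read.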
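Wherever viability, T/C is given: luminescent signal used as a stand-in for spheroid viability; percent viability relative to DMSO vehicle control wells taken as 100%.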

Compound: C=CC(=O)N1CCN(c2nc(=O)n(-c3c(C)ccnc3C(C)C)c3nc(-c4c(O)cccc4F)c(F)cc23)C(C)C1 (stereo not given) + COc1c(OCCCN2CCOCC2)ccc2c3n(c(=NC(=O)c4cnc(N)nc4)nc12)CCN3
- IC50 (second compound 0.00316 µM): > 10000 nM
- IC50 (second compound 0.01 µM): > 10000 nM
- IC50 (second compound 0.0316 µM): > 10000 nM
- IC50 (second compound 0.1 µM): > 10000 nM
- IC50 (second compound 0.316 µM): 3430 nM
- IC50 (second compound 1 µM): < 31.6 nM
- viability, T/C [1]: 119%
- viability, T/C [2]: 100%
- viability, T/C [3]: 112%
- viability, T/C [4]: 97%
- viability, T/C [5]: 100%
- viability, T/C [6]: 99.1%
- viability, T/C [7]: 93.1%
- viability, T/C [8]: 96.6%
- viability, T/C [9]: 104%
- viability, T/C [10]: 108%
- viability, T/C [11]: 97.7%
- viability, T/C [12]: 98.8%
- viability, T/C [13]: 99.8%
- viability, T/C [14]: 101%
- viability, T/C [15]: 92.9%
- viability, T/C [16]: 99%
- viability, T/C [17]: 89.7%
- viability, T/C [18]: 92.7%
- viability, T/C [19]: 78.1%
- viability, T/C [20]: 79.3%
- viability, T/C [21]: 78.7%
- viability, T/C [22]: 80.6%
- viability, T/C [23]: 80.2%
- viability, T/C [24]: 72.7%
- viability, T/C [25]: 48.7%
- viability, T/C [26]: 53.1%
- viability, T/C [27]: 53.2%
- viability, T/C [28]: 46.7%
- viability, T/C [29]: 51.8%
- viability, T/C [30]: 41.2%
- viability, T/C [31]: 28.9%
- viability, T/C [32]: 30.5%
- viability, T/C [33]: 29%
- viability, T/C [34]: 25.6%
- viability, T/C [35]: 26.3%
- viability, T/C [36]: 33.9%

Compound: CC(C)NCC(C(=O)N1CCN(c2ncnc3c2C(C)CC3O)CC1)c1ccc(Cl)cc1 (stereo not given) + COc1c(OCCCN2CCOCC2)ccc2c3n(c(=NC(=O)c4cnc(N)nc4)nc12)CCN3
- IC50 (second compound 0.00316 µM): > 10000 nM
- IC50 (second compound 0.01 µM): > 10000 nM
- IC50 (second compound 0.0316 µM): 7590 nM
- IC50 (second compound 0.1 µM): 4860 nM
- IC50 (second compound 0.316 µM): 35.1 nM
- IC50 (second compound 1 µM): < 31.6 nM
- viability, T/C [1]: 101%
- viability, T/C [2]: 103%
- viability, T/C [3]: 106%
- viability, T/C [4]: 76.1%
- viability, T/C [5]: 68.3%
- viability, T/C [6]: 56.4%
- viability, T/C [7]: 109%
- viability, T/C [8]: 97.1%
- viability, T/C [9]: 101%
- viability, T/C [10]: 82.2%
- viability, T/C [11]: 64.5%
- viability, T/C [12]: 52.7%
- viability, T/C [13]: 104%
- viability, T/C [14]: 110%
- viability, T/C [15]: 85.6%
- viability, T/C [16]: 84.8%
- viability, T/C [17]: 60%
- viability, T/C [18]: 46.7%
- viability, T/C [19]: 73.2%
- viability, T/C [20]: 75%
- viability, T/C [21]: 66.2%
- viability, T/C [22]: 60.8%
- viability, T/C [23]: 57.4%
- viability, T/C [24]: 41.4%
- viability, T/C [25]: 47.9%
- viability, T/C [26]: 49%
- viability, T/C [27]: 46.5%
- viability, T/C [28]: 38.5%
- viability, T/C [29]: 37.5%
- viability, T/C [30]: 33.7%
- viability, T/C [31]: 29.4%
- viability, T/C [32]: 28.5%
- viability, T/C [33]: 28.7%
- viability, T/C [34]: 27.1%
- viability, T/C [35]: 26.9%
- viability, T/C [36]: 27.8%

Compound: CCN1CCN(Cc2ccc(Nc3ncc(F)c(-c4cc(F)c5nc(C)n(C(C)C)c5c4)n3)nc2)CC1 + COc1c(OCCCN2CCOCC2)ccc2c3n(c(=NC(=O)c4cnc(N)nc4)nc12)CCN3
- IC50 (second compound 0.00316 µM): > 1000 nM
- IC50 (second compound 0.01 µM): > 1000 nM
- IC50 (second compound 0.0316 µM): > 1000 nM
- IC50 (second compound 0.1 µM): 59.7 nM
- IC50 (second compound 0.316 µM): < 3.16 nM
- IC50 (second compound 1 µM): < 3.16 nM
- viability, T/C (second compound 0.00316 µM, first compound 0.00316 µM): 99%
- viability, T/C (second compound 0.00316 µM, first compound 0.01 µM): 107%
- viability, T/C [1]: 104%
- viability, T/C [2]: 116%
- viability, T/C [3]: 107%
- viability, T/C [4]: 94.8%
- viability, T/C (second compound 0.01 µM, first compound 0.00316 µM): 99.2%
- viability, T/C (second compound 0.01 µM, first compound 0.01 µM): 94.9%
- viability, T/C [7]: 99.7%
- viability, T/C [8]: 95.2%
- viability, T/C [9]: 76.5%
- viability, T/C [10]: 74.7%
- viability, T/C (second compound 0.0316 µM, first compound 0.00316 µM): 99%
- viability, T/C (second compound 0.0316 µM, first compound 0.01 µM): 99.1%
- viability, T/C [13]: 88.3%
- viability, T/C [14]: 68.5%
- viability, T/C [15]: 57.5%
- viability, T/C [16]: 61.5%
- viability, T/C (second compound 0.1 µM, first compound 0.00316 µM): 81%
- viability, T/C (second compound 0.1 µM, first compound 0.01 µM): 73.2%
- viability, T/C [19]: 57.5%
- viability, T/C [20]: 40.8%
- viability, T/C [21]: 40.7%
- viability, T/C [22]: 50.5%
- viability, T/C (second compound 0.316 µM, first compound 0.00316 µM): 48.4%
- viability, T/C (second compound 0.316 µM, first compound 0.01 µM): 41.7%
- viability, T/C [25]: 41.5%
- viability, T/C [26]: 27.4%
- viability, T/C [27]: 41.7%
- viability, T/C [28]: 52.4%
- viability, T/C (second compound 1 µM, first compound 0.00316 µM): 27.7%
- viability, T/C (second compound 1 µM, first compound 0.01 µM): 32.4%
- viability, T/C [31]: 23.4%
- viability, T/C [32]: 24.3%
- viability, T/C [33]: 34.9%
- viability, T/C [34]: 54.8%

Second part, led by results:

- IC50 (second compound 0.00316 µM): 9340 nM
- IC50 (second compound 0.01 µM): > 10000 nM
- IC50 (second compound 0.0316 µM): 4160 nM
- IC50 (second compound 0.1 µM): 2590 nM
- IC50 (second compound 0.316 µM): 455 nM
- IC50 (second compound 1 µM): < 31.6 nM
Compound: Cn1ncc(Cl)c1-c1cc(C(=O)NC(CN)Cc2cccc(F)c2)sc1Cl (stereo not given) + COc1c(OCCCN2CCOCC2)ccc2c3n(c(=NC(=O)c4cnc(N)nc4)nc12)CCN3
- viability, T/C [1]: 106%
- viability, T/C [2]: 96.6%
- viability, T/C [3]: 92%
- viability, T/C [4]: 74.8%
- viability, T/C [5]: 68.5%
- viability, T/C [6]: 47.2%
- viability, T/C [7]: 97.6%
- viability, T/C [8]: 99.3%
- viability, T/C [9]: 95%
- viability, T/C [10]: 71.1%
- viability, T/C [11]: 57.3%
- viability, T/C [12]: 48.6%
- viability, T/C [13]: 94.2%
- viability, T/C [14]: 96.4%
- viability, T/C [15]: 83.6%
- viability, T/C [16]: 82.5%
- viability, T/C [17]: 52.8%
- viability, T/C [18]: 37.2%
- viability, T/C [19]: 78.8%
- viability, T/C [20]: 80.5%
- viability, T/C [21]: 75.4%
- viability, T/C [22]: 60.9%
- viability, T/C [23]: 48.8%
- viability, T/C [24]: 33%
- viability, T/C [25]: 54.2%
- viability, T/C [26]: 54.5%
- viability, T/C [27]: 51.5%
- viability, T/C [28]: 46%
- viability, T/C [29]: 39.9%
- viability, T/C [30]: 25.9%
- viability, T/C [31]: 32.4%
- viability, T/C [32]: 26.8%
- viability, T/C [33]: 27.8%
- viability, T/C [34]: 32.2%
- viability, T/C [35]: 29.7%
- viability, T/C [36]: 21.7%

- IC50 (second compound 0.00316 µM): 6980 nM
- IC50 (second compound 0.01 µM): 1360 nM
- IC50 (second compound 0.0316 µM): 400 nM
- IC50 (second compound 0.1 µM): 153 nM
- IC50 (second compound 0.316 µM): < 31.6 nM
- IC50 (second compound 1 µM): < 31.6 nM
Compound: Cn1nccc1Nc1nccc(-c2ccn(C(CO)c3ccc(Cl)c(F)c3)c(=O)c2)n1 (stereo not given) + COc1c(OCCCN2CCOCC2)ccc2c3n(c(=NC(=O)c4cnc(N)nc4)nc12)CCN3
- viability, T/C [1]: 111%
- viability, T/C [2]: 84.7%
- viability, T/C [3]: 100%
- viability, T/C [4]: 72.8%
- viability, T/C [5]: 57.7%
- viability, T/C [6]: 46.6%
- viability, T/C [7]: 112%
- viability, T/C [8]: 100%
- viability, T/C [9]: 87.5%
- viability, T/C [10]: 51.4%
- viability, T/C [11]: 41.8%
- viability, T/C [12]: 34.4%
- viability, T/C [13]: 90.2%
- viability, T/C [14]: 83.8%
- viability, T/C [15]: 56.2%
- viability, T/C [16]: 26.4%
- viability, T/C [17]: 25.1%
- viability, T/C [18]: 21.8%
- viability, T/C [19]: 74.5%
- viability, T/C [20]: 58%
- viability, T/C [21]: 35.9%
- viability, T/C [22]: 14.2%
- viability, T/C [23]: 10.7%
- viability, T/C [24]: 9.81%
- viability, T/C [25]: 46.3%
- viability, T/C [26]: 38.4%
- viability, T/C [27]: 18.3%
- viability, T/C [28]: 7.62%
- viability, T/C [29]: 4.31%
- viability, T/C [30]: 2.66%
- viability, T/C [31]: 26%
- viability, T/C [32]: 20.9%
- viability, T/C [33]: 13.4%
- viability, T/C [34]: 6.73%
- viability, T/C [35]: 3.58%
- viability, T/C [36]: 2.38%
